This note sets out measurements from paper PMC8762250, “Identification of Novel Chemical Scaffolds that Inhibit the Growth of Mycobacterium tuberculosis in Macrophages” (Frontiers in Pharmacology, 2022).

The test system of series [1] is M. tuberculosis. Kind of series: High content assay of intracellular M. tuberculosis growth in infected RAW264.7 macrophages. Type of series: cell-based, Mycobacterium tuberculosis H37Rv-LP. The following applies: Mycobacterium tuberculosis, RAW264.7, 72 h, M. tuberculosis in RAW264.7 cells, MOI 1, 72 h; read-out: Intracellular activity Anti-tubercular activity IC50. The method, then:
Compounds were obtained in 384-well plates as 10 mM DMSO stock solutions and tested as described ([Manning et al., 2017]). Briefly, assay plates were prepared in clear bottom, black 384-well plates with 30 μl cRPMI and 0.6 μl compound in columns 3–22 (final concentration of 10 μM compound, 1% DMSO). […] INH and STA were also included in dose response on each plate. RAW264.7 cells were infected with M. tuberculosis DREAM8 as described ([Manning et al., 2017]) at an MOI of 1 for 24 h and extracellular bacteria removed by washing. Cells were recovered using Accumax, harvested, washed and resuspended in serum-free RPMI; 30 μl of infected cells were dispensed into each well at 3,300 cells/well. Plates were incubated for 72 h, 10 μl of 5X SYBR Green I was added and plates were imaged with an ImageXpress Micro High Content Screening System (Molecular Devices) using a ×4 objective and FITC and Texas Red channels. MetaXpress was used to analyze images. The integrated intensity of M. tuberculosis or macrophages was calculated for each well. Growth inhibition was calculated for each test well by normalizing to the average integrated intensity of the DMSO control wells. IC50 was calculated as the compound concentration required to reduce bacterial growth by 50%. TC50 was calculated as the compound concentration required to reduce macrophage viability by 50%.

Series [2] relates to HepG2 cells. Kind of series: HepG2 cytotoxicity (CellTiter-Glo, 72 h). Type of series: cell-based, human. To be noted: human, 72 h. The method, then:
Cytotoxicity against HepG2 cells was measured after 72 h. Cells were seeded in 384-well plates at 1,800 cells per well. Compounds were added as a 10-point three-fold serial dilution after 24 h (final assay concentration of 1% DMSO). CellTiter-Glo® reagent (Promega) was added and relative luminescence units (RLU) measured. Data were normalized to the DMSO controls. Curves were fitted using the Levenberg–Marquardt algorithm; TC50 was calculated as the compound concentration required to reduce cell viability by 50%.
We further evaluated cytotoxicity using the HepG2 cell line cultured with either glucose or galactose in the medium (Table 2). HepG2 cells cultured with galactose rely on mitochondrial oxidative phosphorylation rather than glycolysis which increases their susceptibility to mitochondrial toxicants allowing us to identify compounds with mitochondrial toxicity ([Kamalian et al., 2015]).
(Cellular ATP, detected with luciferase, serves as a proxy for viable cell number.)

For series [3], the system named is M. tuberculosis. Kind of series: Minimum inhibitory concentration in liquid medium (axenic culture). The class given is cell-based, Mycobacterium tuberculosis. To be noted: Mycobacterium tuberculosis, 120 h, extracellular, 5 days, OD590; for IC50: read-out: Anti-tubercular activity in axenic culture IC50; for IC90: read-out: Anti-tubercular activity in axenic culture IC90.

For series [4], the system named is RAW264.7 cells. Kind of series: Macrophage viability in the same high content assay. The following applies: infected RAW264.7 macrophages, 72 h.

Molecules are shown by their SMILES. Marks after values point to notes of the source that are not given here.

What is called IC50 is the concentration that inhibits the measured activity by half. For orientation: IC90 means the point of the concentration-response curve where the effect stands at 90%. Regarding `Cc1ccc(Nc2nc(-c3ccc(Cl)cc3)cs2)cc1Cl` [TPN-0095032], the IC50 in series [1] was determined as 3.5 ± 0.83 µM. Besides, in series [2], the “HepG2 cytotoxicity TC50 Galactose” value is given as 19 ± 0.5 ^b µM and the “HepG2 cytotoxicity TC50 Glucose” value is reported as 23 ± 1.5 ^b µM. In series [3], the IC50 was over 20 µM and the IC90 was over 20 µM. Besides, the “Intracellular activity Cytotoxicity TC50” value in series [4] is given as 9.9 ± 0.98 ^c µM.
For the compound `O=c1c(/C=N/Cc2cccnc2)c(NCc2cccnc2)nc2ccccn12` [TPN-0095033], the IC50 in series [1] turned out to be 3.4 ± 2.6 µM. Moreover, in series [2], the “HepG2 cytotoxicity TC50 Galactose” value is given as >100 ^c µM and the “HepG2 cytotoxicity TC50 Glucose” value is reported as >100 ^c µM. Also, in series [3], the IC50 is over 20 µM and the IC90 was over 20 µM. Further, in series [4], the “Intracellular activity Cytotoxicity TC50” value is >100 ^c µM.
Take `O=C(c1ccc(Cl)c(Cl)c1)N1CCN(c2ccc([N+](=O)[O-])c3cccnc23)CC1` [TPN-0095034]: the IC50 in series [1] was determined as 8.4 ± 2.3 µM. For the same compound, in series [2], the “HepG2 cytotoxicity TC50 Galactose” value is on record as >100 ^c µM and the “HepG2 cytotoxicity TC50 Glucose” value is given as >100 ^c µM. Moreover, in series [3], the IC50 was over 20 µM and the IC90 is over 20 µM. The “Intracellular activity Cytotoxicity TC50” value in series [4] is listed as >100 ^d µM.
For the compound `O=C(c1c(F)cccc1F)N1CCN(c2cc(N3CCCCCC3)c(F)cc2[N+](=O)[O-])CC1` [TPN-0095035], the IC50 in series [1] came out at 1 ± 0.02 µM. Also, in series [2], the “HepG2 cytotoxicity TC50 Galactose” value is on record as 21 ± 2.0 ^b µM and the “HepG2 cytotoxicity TC50 Glucose” value is reported as 27 ± 0 ^b µM. Besides, in series [3], the IC50 was 9.6 ± 0.1 µM and the IC90 was over 10 µM. For the same compound, the “Intracellular activity Cytotoxicity TC50” value in series [4] is >50 ^c µM.
Consider `O=C(CN(C1=NCCCS1)c1ccccc1)c1ccc(Cl)c(Cl)c1` [TPN-0095036], for which the IC50 in series [1] turned out to be 3.5 ± 0.97 µM. Further, in series [2], the “HepG2 cytotoxicity TC50 Galactose” value is listed as 20 ± 0.47 ^c µM and the “HepG2 cytotoxicity TC50 Glucose” value is recorded as 21 ± 3.4 ^c µM. For the same compound, in series [3], the IC50 is over 20 µM and the IC90 was over 20 µM. Further, the “Intracellular activity Cytotoxicity TC50” value in series [4] was 27 ± 2.8 ^c µM.
Consider `Cc1ccc(NC(=O)CCN2CCN(c3ccc(Cl)cc3)CC2)cc1` [TPN-0095037], for which the IC50 in series [1] was determined as 2 ± 0.53 µM. In addition, in series [2], the “HepG2 cytotoxicity TC50 Galactose” value is given as 56 ± 4 ^b µM and the “HepG2 cytotoxicity TC50 Glucose” value was 84 ± 2.5 ^b µM. For the same compound, in series [3], the IC50 was over 20 µM and the IC90 is over 20 µM. The “Intracellular activity Cytotoxicity TC50” value in series [4] was 54 ± 26 ^c µM.
Take `Brc1c(-c2ccccc2)nc2ccccn12` [TPN-0095038]: in series [1], the IC50 was 2.5 µM. In addition, in series [2], the “HepG2 cytotoxicity TC50 Galactose” value is reported as >100 ^c µM and the “HepG2 cytotoxicity TC50 Glucose” value is reported as >100 ^b µM. In addition, in series [3], the IC50 came to 9.2 ± 1 µM and the IC90 is over 20 µM. Moreover, the “Intracellular activity Cytotoxicity TC50” value in series [4] is 72 ± 15 ^b µM.
Regarding `Fc1ccc(C2CC(c3ccc(Cl)cc3Cl)n3ncnc3N2)cc1` (centres unmarked) [TPN-0095039], the IC50 in series [1] was determined as 2.1 ± 0.74 µM. Also, in series [2], the “HepG2 cytotoxicity TC50 Galactose” value was 30 ± 3.2 ^d µM and the “HepG2 cytotoxicity TC50 Glucose” value is 29 ± 7.7 ^e µM. Moreover, in series [3], the IC50 is 14 ± 2.1 µM and the IC90 turned out to be 18 ± 1.4 µM. The “Intracellular activity Cytotoxicity TC50” value in series [4] was 24 ± 6.1 ^c µM.
With `CCOC(=O)c1nnn(-c2nc(N3CCCC3)nc(N3CCCC3)n2)c1-c1ccccc1` [TPN-0095040], in series [2], the “HepG2 cytotoxicity TC50 Galactose” value is reported as >50 ^c µM and the “HepG2 cytotoxicity TC50 Glucose” value is on record as >50 ^c µM. Besides, in series [3], the IC50 was over 10 µM and the IC90 is over 10 µM. Moreover, in series [4], the “Intracellular activity Cytotoxicity TC50” value is 31 ± 18 ^b µM.
Take `COc1ccc(C(=O)c2sc(NCc3ccccc3)nc2N)cc1` [TPN-0095041]: the IC50 in series [1] was 3.6 ± 0.5 µM. Also, in series [2], the “HepG2 cytotoxicity TC50 Galactose” value is 24 ± 0.5 ^b µM and the “HepG2 cytotoxicity TC50 Glucose” value is 52 ± 5.5 ^b µM. In series [3], the IC50 was determined as 14 ± 1 µM and the IC90 was over 20 µM. For the same compound, the “Intracellular activity Cytotoxicity TC50” value in series [4] is on record as 13 ± 5.5 ^c µM.
Consider `O=C(CN1CCC(Cc2ccccc2)CC1)Nc1ccc(Cl)cn1` [TPN-0095042], for which the IC50 in series [1] came to 3.7 ± 0.62 µM. Besides, in series [2], the “HepG2 cytotoxicity TC50 Galactose” value was 19 ± 1.0 ^b µM and the “HepG2 cytotoxicity TC50 Glucose” value is 26 ± 3.0 ^b µM. For the same compound, in series [3], the IC50 was over 10 µM and the IC90 is over 10 µM. The “Intracellular activity Cytotoxicity TC50” value in series [4] is reported as 21 ± 9.3 ^c µM.
